Test results as given in patent US7767685B2, “Adenosine A2B receptor antagonists” (King Pharmaceuticals Research and Development, Inc., priority 2006, dated 2010).

What was measured:
[1] = biological target: T1, human A1 adenosine receptors (Homo sapiens, UniProt P30542); assay: Displacement of [3H]DPCPX binding at human A1 adenosine receptors expressed in CHO cells; conditions: [3H]DPCPX displacement, n = 3-6, geometric mean (95% confidence limits), read-out: Ki hA1
T1 construct: expressed in transfected cells; host or cells: CHO cells (membranes)
T1 sequence (P30542 1-326): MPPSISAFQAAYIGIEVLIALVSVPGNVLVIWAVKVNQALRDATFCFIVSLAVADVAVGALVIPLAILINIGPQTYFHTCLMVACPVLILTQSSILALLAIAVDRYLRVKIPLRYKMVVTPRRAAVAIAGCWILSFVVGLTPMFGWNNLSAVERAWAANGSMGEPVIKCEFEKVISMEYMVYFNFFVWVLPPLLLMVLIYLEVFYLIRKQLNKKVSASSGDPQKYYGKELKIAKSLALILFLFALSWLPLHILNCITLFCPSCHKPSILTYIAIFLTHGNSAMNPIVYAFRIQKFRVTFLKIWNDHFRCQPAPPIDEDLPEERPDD
Method: (§1) The human adenosine receptors have been transfected in CHO cells according with the method previously described by Klotz et al. (Naunyn-Schmied. Arch Pharm. 1998, 357: 1-9). Briefly, the cells are grown adherently and maintained in Dulbecco's Modified Eagles Medium with nutrient mixture F12 (DMEM/F12) without nucleosides, containing 10% fetal calf serum, penicillin (100 U/mL), streptomycin (100 μg/mL), L-glutamine (2 mM) and Geneticin (G418, 0.2 mg/ml) at 37° C. in 5% CO2/95% air. For membrane preparation the culture medium is removed and the cells are washed with phosphate-buffered saline and scraped off T75 flasks in ice-cold hypo tonic buffer (5 mM Tris HCl, 1 mM EDTA, pH 7.4). The cell suspension is homogenized with Polytron, the homogenate is spun for 10 min at 1000×g and the supernatant is then centrifuged for 30 min at 100,000×g. The membrane pellet is suspended in 50 mM Tris HCl buffer (pH 7.4) for A1 adenosine receptors, in 50 mM Tris HCl, 10 mM MgCl2 (pH 7.4) for A2A adenosine receptors, in 50 mM Tris HCl, 10 mM MgCl2, 1 mM EDTA (pH 7.4) for A2B and A3 adenosine receptors.
(§2) All new synthesized compounds have been tested to evaluate their affinity to human A1, A2A, A2B and A3 adenosine receptors. Displacement experiments of [^3H]-DPCPX to CHO cells transfected with the human recombinant A1 adenosine receptors are performed for 120 min at 25° C. incubating diluted membranes (50 μg of protein/assay) and at least 6-8 different concentrations of examined antagonists (Varani et al., Mol. Pharmacol., 2000, 57: 968-975). Non-specific binding is determined in the presence of 10 μM of CHA and this is always ≦10% of the total binding. Binding of [^3H]-ZM 241385 to CHO cells transfected with the human recombinant A2A adenosine receptors is performed using a suspension of membranes (50 μg of protein/assay) and at least 6-8 different concentrations of studied antagonists for an incubation time of 60 min at 4° C. Non-specific binding is determined in the presence of 1 μM ZM 241385 and is about 20% of total binding. Competition binding experiments of [^3H]-MRE 2029F20 to CHO cells transfected with the human recombinant A2B adenosine receptors are carried out incubating for 120 min at 4° C. diluted membranes (50 μg of protein/assay) and at least 6-8 different concentrations of examined compounds. Non-specific binding is defined as binding in the presence of 1 μM MRE 3029F20 and is about 25% of total binding. Competition binding experiments of [^3H]-MRE 3008F20 to CHO cells transfected with the human recombinant A3 adenosine receptors^5 are carried out incubating for 120 min at 4° C. diluted membranes (50 μg of protein/assay) and at least 6-8 different concentrations of examined ligands. Non-specific binding is defined as binding in the presence of 1 μM MRE 3008F20 and is about 25% of total binding. Bound and free radioactivity are separated by filtering the assay mixture through Whatman GF/B glass fiber filters using a Micro-Mate 196 cell harvester (Packard Instrument Co.). The filter bound radioactivity is counted on a Top Count (efficiency 57%) with Micro-Scint 20.
(§3) The protein concentration is determined according to a Bio-Rad method (Bradford, Anal Biochem. 1976, 72: 248-254) with bovine albumin as a standard reference. Inhibitory binding constant, Ki, values are calculated from those of IC50 according to Cheng & Prusoff equation (Biochem. Pharmacol 1973, 22: 3099-3108): Ki=IC50/(1+[C*]/KD*) where [C*] is the concentration of the radioligand and KD* its dissociation constant. A weighted non linear least-squares curve fitting program LIGAND (Munson et al., Anal. Biochem 1980, 107: 220-239) is used for computer analysis of inhibition experiments Data are expressed as geometric mean with 95% confidence limits in parentheses. Examples of Animal Models

[2] = biological target: T2, human A2A adenosine receptors (Homo sapiens, UniProt P29274); assay: Displacement of [3H]ZM241385 binding at human A2A adenosine receptors expressed in CHO cells; conditions: [3H]ZM241385 displacement, n = 3-6, geometric mean (95% confidence limits), read-out: Ki hA2A
T2 construct: expressed in transfected cells; host or cells: CHO cells (membranes)
Method: as §1, §2, §3

T2 sequence (P29274 whole entry): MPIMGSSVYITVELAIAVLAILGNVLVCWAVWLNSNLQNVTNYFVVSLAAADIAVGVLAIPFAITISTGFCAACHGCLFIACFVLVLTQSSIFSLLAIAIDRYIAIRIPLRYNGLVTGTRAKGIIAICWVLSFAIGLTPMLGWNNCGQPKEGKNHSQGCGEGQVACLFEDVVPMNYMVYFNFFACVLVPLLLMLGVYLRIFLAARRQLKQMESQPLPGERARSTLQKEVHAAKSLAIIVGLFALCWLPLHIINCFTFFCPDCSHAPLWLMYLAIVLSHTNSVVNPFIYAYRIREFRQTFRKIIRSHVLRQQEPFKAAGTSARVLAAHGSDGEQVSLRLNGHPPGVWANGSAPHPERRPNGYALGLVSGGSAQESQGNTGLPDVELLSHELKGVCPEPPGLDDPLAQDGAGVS

SMILES | melting point | Ki [1] | Ki [2]
CCCn1c(=O)c2[nH]c(-c3cc(C)n(CC(=O)Nc4ccccc4)n3)nc2n(CCC)c1=O [Example 1, 2-[3-(2,6-Dioxo-1,3-dipropyl-2,3,6,7-tetrahydro-1H-purin-8-yl)-5-methyl-pyrazol-1-yl]-N-phenyl-acetamide] | 255 to 257 °C | 350 nM | > 1000 nM
CCCn1c(=O)c2[nH]c(-c3cc(C)n(CC(=O)Nc4ccc(Cl)c(Cl)c4)n3)nc2n(CCC)c1=O [Example 16, 2-[3-(2,6-Dioxo-1,3-dipropyl-2,3,6,7-tetrahydro-1H-purin-8-yl)-5-methyl-pyrazol-1-yl]-N-(3,4-dichlorophenyl)-acetamide] | 298 °C | > 1000 nM | > 1000 nM
CCCn1c(=O)c2[nH]c(-c3cc(C)n(CC(=O)Nc4ccc(OC)c(OC)c4)n3)nc2n(CCC)c1=O [Example 8, 2-[3-(2,6-Dioxo-1,3-dipropyl-2,3,6,7-tetrahydro-1H-purin-8-yl)-5-methyl-pyrazol-1-yl]-N-(3,4-dimethoxyphenyl)-acetamide] | 285 to 290 °C | > 1000 nM | > 1000 nM
CCCn1c(=O)c2[nH]c(-c3cc(C)n(CC(=O)Nc4cccc(OC)c4)n3)nc2n(CCC)c1=O [Example 14, 2-[3-(2,6-Dioxo-1,3-dipropyl-2,3,6,7-tetrahydro-1H-purin-8-yl)-5-methyl-pyrazol-1-yl]-N-(3-methoxylphenyl)-acetamide] | 274 to 277 °C | 480 nM | > 1000 nM
CCCn1c(=O)c2[nH]c(-c3cc(C)n(CC(=O)Nc4ccc(C)cc4)n3)nc2n(CCC)c1=O [Example 17, 2-[3-(2,6-Dioxo-1,3-dipropyl-2,3,6,7-tetrahydro-1H-purin-8-yl)-5-methyl-pyrazol-1-yl]-N-p-tolyl-acetamide] | > 300 °C | > 1000 nM | > 1000 nM
CCCn1c(=O)c2[nH]c(-c3nn(CC(=O)Nc4ccc(Cl)cc4)c(C)c3Cl)nc2n(CCC)c1=O [Example 18, 2-[4-Chloro-3-(2,6-dioxo-1,3-dipropyl-2,3,6,7-tetrahydro-1H-purin-8-yl)-5-methyl-pyrazol-1-yl]-N-(4-chlorophenyl)-acetamide] | – | > 1000 nM | > 1000 nM
CCCn1c(=O)c2[nH]c(-c3cc(C)n(CC(=O)Nc4ccc(OC)cc4)n3)nc2n(CCC)c1=O [Example 6, 2-[3-(2,6-Dioxo-1,3-dipropyl-2,3,6,7-tetrahydro-1H-purin-8-yl)-5-methyl-pyrazol-1-yl]-N-(4-methoxyphenyl)-acetamide] | 293 to 296 °C | > 1000 nM | > 1000 nM
CCCn1c(=O)c2[nH]c(-c3ccn(CC(=O)Nc4ccc(Cl)cc4)n3)nc2n(CCC)c1=O [Example 10, 2-[3-(2,6-Dioxo-1,3-dipropyl-2,3,6,7-tetrahydro-1H-purin-8-yl)-pyrazol-1-yl]-N-(4-chloro-phenyl)-acetamide] | 283 to 285 °C | 140 nM | > 1000 nM
CCCn1c(=O)c2[nH]c(-c3cc(C)n(CC(=O)Nc4ccc(C(C)CC)cc4)n3)nc2n(CCC)c1=O (centres unmarked) [Example 12, 2-[3-(2,6-Dioxo-1,3-dipropyl-2,3,6,7-tetrahydro-1H-purin-8-yl)-5-methyl-pyrazol-1-yl]-N-(4-sec-butylphenyl)-acetamide] | 268 to 271 °C | > 1000 nM | > 1000 nM
CCCn1c(=O)c2[nH]c(-c3cc(C)n(CC(=O)Nc4ccc(C)c(C)c4)n3)nc2n(CCC)c1=O [Example 7, 2-[3-(2,6-Dioxo-1,3-dipropyl-2,3,6,7-tetrahydro-1H-purin-8-yl)-5-methyl-pyrazol-1-yl]-N-(3,4-dimethylphenyl)-acetamide] | 261 to 265 °C | > 1000 nM | > 1000 nM
CCCn1c(=O)c2[nH]c(-c3cc(C)n(CC(=O)Nc4cccc(Cl)c4)n3)nc2n(CCC)c1=O [Example 15, 2-[3-(2,6-Dioxo-1,3-dipropyl-2,3,6,7-tetrahydro-1H-purin-8-yl)-5-methyl-pyrazol-1-yl]-N-(3-chlorophenyl)-acetamide] | 304 to 307 °C | 675 nM | > 1000 nM
CCCn1c(=O)c2[nH]c(-c3cc(C)n(CC(=O)Nc4ccc(F)cc4)n3)nc2n(CCC)c1=O [Example 5, 2-[3-(2,6-Dioxo-1,3-dipropyl-2,3,6,7-tetrahydro-1H-purin-8-yl)-5-methyl-pyrazol-1-yl]-N-(4-fluoro-phenyl)-acetamide] | 205 to 207 °C | 500 nM | > 1000 nM
CCCn1c(=O)c2[nH]c(-c3nn(CC(=O)Nc4ccc(Cl)cc4)c(C)c3Br)nc2n(CCC)c1=O [Example 19, 2-[4-Bromo-3-(2,6-dioxo-1,3-dipropyl-2,3,6,7-tetrahydro-1H-purin-8-yl)-5-methyl-pyrazol-1-yl]-N-(4-chlorophenyl)-acetamide] | 298 to 299 °C | > 1000 nM | > 1000 nM
CCCn1c(=O)c2[nH]c(-c3cc(C)n(CC(=O)Nc4ccc(I)cc4)n3)nc2n(CCC)c1=O [Example 2, 2-[3-(2,6-Dioxo-1,3-dipropyl-2,3,6,7-tetrahydro-1H-purin-8-yl)-5-methyl-pyrazol-1-yl]-N-(4-iodophenyl)-acetamide] | 286 to 289 °C | > 1000 nM | > 1000 nM
